Laboratory results from the supplement of paper PMC11962398.

Assays:
[1] = compound: T1, C[C@H]1CNCCN1c1nccc(-c2noc3c2CCC[C@@]32CCCc3sc(N)c(C#N)c32)n1 [BI-2493]; assay: 1 - AUC of viability dose-response curve (sensitivity) (fraction); higher = more sensitive; details: 5 days
Method: (§1)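 PRISM pooled barcoded cancer cell line viability screen (Broad Institute) with BI-2493 at 8 doses in threefold dilutions from 0.00457 to 10 µmol/L, 5-day treatment; curves fitted per cell line. IC50 is undefined (placeholder) for resistant lines. AUC is capped at 1, and sensitivity is reported as 1 − AUC.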

[2] = compound: T1, BI-2493; details: 5 days
Method: as §1

Test System	1 - AUC of viability dose-response curve [1]	IC50 of cell viability [2]
MDAMB436_BREAST	0.0282	> 10 µM
MDAMB453_BREAST	0.115	5.47 µM
MDAPCA2B_PROSTATE	0.118	> 10 µM
MDST8_LARGE_INTESTINE	0.00776	9.82 µM
MEG01_HAEMATOPOIETIC_AND_LYMPHOID_TISSUE	0.0154	9.19 µM
MEL285_UVEA	0.145	6.23 µM
MEL290_UVEA	0.105	> 10 µM
MELHO_SKIN	0.131	7.85 µM
MESSA_SOFT_TISSUE	0.17	3.73 µM
MEWO_SKIN	0.0577	9.6 µM
MFE280_ENDOMETRIUM	0.18	> 10 µM
MFE296_ENDOMETRIUM	0.136	9.19 µM
MFE319_ENDOMETRIUM	0.0267	9.02 µM
MG63_BONE	0.0826	9.09 µM
MHHES1_BONE	0.114	8.05 µM
MHHNB11_AUTONOMIC_GANGLIA	0.177	4.36 µM
MKN1_STOMACH	0.305	1.18 µM
MKN7_STOMACH	0.161	8.55 µM
MKN45_STOMACH	0.401	0.5 µM
MKN74_STOMACH	0.117	7.22 µM
MM1S_HAEMATOPOIETIC_AND_LYMPHOID_TISSUE	0.413	0.558 µM
MM127_SKIN	0.0501	7.34 µM
MMNK1_BILIARY_TRACT	0.0714	4.9 µM
MOLM14_HAEMATOPOIETIC_AND_LYMPHOID_TISSUE	0.145	2.79 µM
MOLP2_HAEMATOPOIETIC_AND_LYMPHOID_TISSUE	0.0525	6.56 µM
MOLT3_HAEMATOPOIETIC_AND_LYMPHOID_TISSUE	0.0789	6.51 µM

Test System	1 - AUC of viability dose-response curve [1]	IC50 of cell viability [2]
MOLT13_HAEMATOPOIETIC_AND_LYMPHOID_TISSUE	0.13	5.21 µM
MOLT16_HAEMATOPOIETIC_AND_LYMPHOID_TISSUE	0.297	1.81 µM
MONOMAC1_HAEMATOPOIETIC_AND_LYMPHOID_TISSUE	0.17	7.33 µM
MONOMAC6_HAEMATOPOIETIC_AND_LYMPHOID_TISSUE	0.149	7.72 µM
MON_SOFT_TISSUE	0.163	2.57 µM
MP41_UVEA	0.119	5.17 µM
MPP89_PLEURA	0.0335	9.24 µM
MS751_CERVIX	0.029	8.93 µM
MSTO211H_PLEURA	0.136	3.67 µM
NALM6_HAEMATOPOIETIC_AND_LYMPHOID_TISSUE	0.0753	6.5 µM
NB1_AUTONOMIC_GANGLIA	0.201	3.3 µM
NB4_HAEMATOPOIETIC_AND_LYMPHOID_TISSUE	0.175	2.53 µM
NCCIT_TESTIS	0.192	0.878 µM
NCIH23_LUNG	0.199	3 µM
NCIH28_PLEURA	0.0967	5.43 µM
NCIH82_LUNG	0.0218	8.8 µM
NCIH196_LUNG	0.0864	6.4 µM
NCIH226_LUNG	0.134	5.37 µM
NCIH292_LUNG	0.0643	5.7 µM
NCIH322_LUNG	0.257	2.29 µM
NCIH358_LUNG	0.281	2.33 µM
NCIH441_LUNG	0.168	4.14 µM
NCIH446_LUNG	0.216	4.06 µM
NCIH508_LARGE_INTESTINE	0.088	> 10 µM
NCIH520_LUNG	0.0795	> 10 µM
NCIH522_LUNG	0.0303	9.9 µM

Test System	1 - AUC of viability dose-response curve [1]	IC50 of cell viability [2]
NCIH524_LUNG	0.0829	5.44 µM
NCIH596_LUNG	0.00278	> 10 µM
NCIH647_LUNG	0.171	5.65 µM
NCIH650_LUNG	0.0133	9.27 µM
NCIH661_LUNG	0.155	9.34 µM
NCIH727_LUNG	0.129	6.54 µM
NCIH747_LARGE_INTESTINE	0.384	0.323 µM
NCIH838_LUNG	0.0686	7.55 µM
NCIH841_LUNG	0.162	6.98 µM
NCIH1048_LUNG	0.0696	6.78 µM
NCIH1092_LUNG	0.131	3.99 µM
NCIH1299_LUNG	0.0368	8.5 µM
NCIH1339_LUNG	0.0455	6.82 µM
NCIH1341_LUNG	0.146	> 10 µM
NCIH1355_LUNG	0.219	2.46 µM
NCIH1435_LUNG	0.0748	4.95 µM
NCIH1437_LUNG	0.153	4.73 µM
NCIH1563_LUNG	0.00763	9.88 µM
NCIH1568_LUNG	0.0444	7.78 µM
NCIH1573_LUNG	0.0775	7.27 µM
NCIH1581_LUNG	0.0823	8.08 µM
NCIH1623_LUNG	0.0102	9.93 µM
NCIH1648_LUNG	0.26	1.57 µM
NCIH1650_LUNG	0.042	8.06 µM
NCIH1694_LUNG	0.00415	> 10 µM
